According to the supplement of paper PMC10307832:

Columns and labels:
Experiment in all cases: relative viability (nuclei count vs DMSO), 5 days (fraction); higher = more cells survive
[1] = compound: CC(=O)c1c(C)c2cnc(Nc3ccc(N4CCNCC4)cn3)nc2n(C2CCCC2)c1=O [Palbociclib] + COc1cccc2cc(-c3nc([C@H]4CC[C@H](C(=O)O)CC4)n4ncnc(N)c34)[nH]c12 [OSI-027] (partner 0.5 µM)
Outline: (§1)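 Cells from lung cancer lines were seeded into 1536-well plates and, one day later, dosed by pin tool. Treatments were either a single drug or a fixed dose of an anchor drug with five library-drug doses (not always all listed) in √10 steps. After 5 days, nuclei were stained in a one-step fixation (final 0.05% Triton X-100, 1% formaldehyde, 1 ug/ml Hoechst) and counted on 4× images, and relative viability is the treated-to-vehicle nuclei ratio, as the median of duplicate plates.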

[2] = compound: CC(=O)c1c(C)c2cnc(Nc3ccc(N4CCNCC4)cn3)nc2n(C2CCCC2)c1=O [Palbociclib] + CC1(C)CCC(c2ccc(Cl)cc2)=C(CN2CCN(c3ccc(C(=O)NS(=O)(=O)c4ccc(N[C@H](CCN5CCOCC5)CSc5ccccc5)c(S(=O)(=O)C(F)(F)F)c4)cc3)CC2)C1 [Navitoclax] (partner 0.5 µM)
Outline: as §1

[3] = compound: CC(=O)c1c(C)c2cnc(Nc3ccc(N4CCNCC4)cn3)nc2n(C2CCCC2)c1=O [Palbociclib] + CS(=O)(=O)N1CCN(Cc2cc3nc(-c4cccc5[nH]ncc45)nc(N4CCOCC4)c3s2)CC1 [Pictilisib] (partner 1 µM)
Outline: as §1

[4] = compound: CC(=O)c1c(C)c2cnc(Nc3ccc(N4CCNCC4)cn3)nc2n(C2CCCC2)c1=O [Palbociclib] + C[C@]1(O)C[C@@H](c2nc(-c3ccc4ccc(-c5ccccc5)nc4c3)c3c(N)nccn32)C1 [Linsitinib] (partner 1 µM)
Outline: as §1

Row | Cell Line | relative viability ([1]; first compound 0.01 µM) | relative viability ([1]; first compound 0.03162 µM) | relative viability ([1]; first compound 0.1 µM) | relative viability ([1]; first compound 0.3162 µM) | relative viability ([1]; first compound 1 µM) | relative viability ([2]; first compound 0.01 µM) | relative viability ([2]; first compound 0.03162 µM) | relative viability ([2]; first compound 0.1 µM) | relative viability ([2]; first compound 0.3162 µM) | relative viability ([2]; first compound 1 µM) | relative viability ([3]; first compound 0.01 µM) | relative viability ([3]; first compound 0.03162 µM) | relative viability ([3]; first compound 0.1 µM) | relative viability ([3]; first compound 0.3162 µM) | relative viability ([3]; first compound 1 µM) | relative viability ([4]; first compound 0.01 µM) | relative viability ([4]; first compound 0.03162 µM) | relative viability ([4]; first compound 0.1 µM) | relative viability ([4]; first compound 0.3162 µM) | relative viability ([4]; first compound 1 µM)
1 | NCI-H2023 | 0.358 | 0.335 | 0.298 | 0.265 | 0.154 | 1 | 0.897 | 0.897 | 0.77 | 0.48 | 0.2 | 0.151 | 0.151 | 0.15 | 0.111 | 0.658 | 0.597 | 0.57 | 0.472 | 0.316
2 | NCI-H1651 | 0.663 | 0.639 | 0.706 | 0.663 | 0.334 | 1.13 | 0.986 | 0.907 | 0.992 | 0.736 | 0.573 | 0.524 | 0.499 | 0.529 | 0.355 | 0.972 | 0.913 | 1.01 | 0.933 | 0.698
3 | NCI-H1944 | 0.461 | 0.336 | 0.335 | 0.325 | 0.213 | 1.03 | 1.06 | 0.878 | 1.03 | 0.987 | 0.317 | 0.332 | 0.334 | 0.265 | 0.228 | 1.15 | 0.993 | 1.06 | 1.08 | 0.836
4 | NCI-H1437 | 0.747 | 0.734 | 0.711 | 0.65 | 0.291 | 1.1 | 1.04 | 0.933 | 0.923 | 0.563 | 0.424 | 0.38 | 0.366 | 0.317 | 0.162 | 1.02 | 1.02 | 0.872 | 0.847 | 0.408
5 | EKVX | 0.713 | 0.664 | 0.6 | 0.575 | 0.366 | 1.11 | 0.826 | 0.755 | 0.764 | 0.476 | 0.478 | 0.363 | 0.223 | 0.281 | 0.249 | 1.01 | 0.786 | 0.722 | 0.781 | 0.492
6 | NCI-H2347 | 0.467 | – | 0.402 | 0.379 | 0.308 | 0.835 | 0.751 | 0.646 | 0.6 | 0.533 | 0.538 | 0.772 | 0.584 | 0.47 | 0.492 | 1.04 | 0.868 | 0.597 | 0.723 | 0.595
7 | SK-MES-1 | 0.528 | 0.364 | 0.345 | 0.314 | 0.186 | 1.36 | 1.22 | 0.821 | 0.745 | 0.477 | 0.359 | 0.305 | 0.238 | 0.266 | 0.196 | 1.01 | 1 | 0.791 | 0.772 | 0.609
8 | H3255 | 0.597 | 0.49 | 0.405 | 0.469 | 0.382 | 0.632 | 0.512 | 0.406 | 0.567 | 0.338 | 0.517 | 0.376 | 0.394 | 0.434 | 0.261 | 1.16 | 0.873 | 0.844 | 0.775 | 0.514
9 | NCI-H1395 | 0.64 | 0.55 | 0.536 | 0.54 | 0.415 | 1.22 | 1.17 | 0.924 | 0.943 | 0.656 | 0.616 | 0.542 | 0.507 | 0.494 | 0.425 | 1.35 | 0.968 | 0.737 | 0.887 | 0.726
10 | NCI-H2405 | 0.586 | 0.487 | 0.492 | 0.483 | 0.396 | 0.866 | – | 0.574 | 0.729 | 0.722 | 0.46 | – | 0.294 | 0.415 | 0.313 | 0.992 | – | 0.49 | 0.808 | 0.54
11 | UMC-11 | 0.462 | 0.417 | 0.302 | 0.308 | 0.286 | 0.326 | 0.326 | 0.23 | 0.257 | 0.223 | 0.873 | 0.671 | 0.429 | 0.36 | 0.219 | 1.02 | 0.894 | 0.888 | 0.536 | 0.326
12 | LCLC-97TM1 | 0.586 | 0.353 | 0.349 | 0.219 | 0.221 | 0.401 | – | 0.27 | 0.294 | 0.281 | 0.199 | – | 0.122 | 0.157 | 0.101 | 0.185 | – | 0.167 | 0.165 | 0.158
13 | HCC-44 | 0.487 | 0.492 | 0.512 | 0.582 | 0.482 | 0.948 | 0.953 | 1.03 | 0.99 | 1.02 | 0.658 | 0.538 | 0.544 | 0.642 | 0.521 | 0.661 | 0.648 | 0.691 | 0.679 | 0.661
14 | NCI-H322M | 0.553 | 0.499 | 0.385 | 0.435 | 0.446 | 1.14 | 1.31 | 1.03 | 0.964 | 0.808 | 0.474 | 0.495 | 0.459 | 0.393 | 0.34 | 0.892 | 0.836 | 0.718 | 0.78 | 0.638
